# Where “and” joins values, the source holds several entries; their conditions need not be identical. Equal values may be shown once.
# Experiment: Part 2 PK study: 200 mg QD versus 100 mg BID for 10 days under fed conditions
# Type: in vivo, human
# Details: for AUC0-last / AUC0-tau / Cavg / Cmax / Fluct / Tlast / Tmax / t½ / % AUCexp / AUCinf / Accum Index / CLss/F / Cmin: fed
# Experimental: Part 2 involved analysing the PK parameters obtained following either single (QD) or twice daily (BD) dosing of a compound of formula (Ia) under fed conditions.
# Subjects were randomized 1:1 to receive a daily dose of 200 mg administered once daily in the morning (200 mg capsule) or twice daily (100 mg capsules BID) for a total of 10 days. PK blood samples were taken on Day 1 pre-dose and at 0.25, 0.5, 1.0, 1.5, 2, 3, 4, 8, 10, 12 and 16 hours post-dose. On Days 2 to 10, PK blood samples were taken once pre-dose, and on Days 11 to 14, at 24, 36, 48, 60, 72 and 96 hours post-dose.
# Subjects selected for participation checked into the clinical unit and were randomized to the dosing regimen receiving their first dose of study drug on the morning of Day 1 followed by PK and safety assessments through the morning of Day 2 (24 hours post-dose). Subjects on a BID regimen received their second dose of study drug approximately 12 hours after the first dose. Subjects remained confined in the clinic for dosing BID or QD through the last dose of study drug on the morning of Day 10. PK samples were collected through 96 hrs post-dose. Subjects were discharged from the clinic following collection of the 72 hr PK sample, returning to the clinic on the morning of Day 14 for the 96 hr sample collection.
# For both Parts 1 and 2, samples were processed and analysed as follows. The method extracted Q-122 and the Internal Standard (IS, Q-122 ^13C4) from human plasma using protein precipitation extraction.
# The analytes were separated by HPLC on a Phenomenex Synergi Polar-RP column, and the eluates monitored by an API4000 MS/MS detector in positive MRM mode. The extract was then assayed against a calibration curve. The data were acquired and processed by the data acquisition system Analyst® (Sciex) linked directly to the API4000 MS/MS detector and then processed in Watson LIMS™ (Thermo Scientific), where applicable. The method range is from 10.0 to 2500 ng/mL using 50 μL of matrix and has a run time of approximately 3.2 minutes per sample.
# Plasma PK parameters for each dosing regimen and dose level were calculated from the concentrations of Q-122 and its major metabolites measured in pre-dose and post-dose plasma samples. For each dose level, descriptive statistics (sample size, arithmetic means, geometric means, standard deviation, % coefficient of variation, minimum, median, and maximum) are presented.
# The pharmacokinetic results were processed according to standard non-compartmental analytical procedures. The software used was Phoenix™ WinNonlin® v 6.4 (Pharsight Corporation, USA) and Microsoft® Excel® 2010 (Microsoft Corporation). The following PK parameters were estimated from plasma data.
# [1] = 100 mg BID, Day 1, individual subjects
# [2] = 100 mg BID, Day 10, individual subjects
# [3] = 200 mg QD, Day 1, individual subjects
smiles,measurement,setting,value
c1cnc(NCc2ccc(CNc3ncccn3)cc2)nc1 [Q-122],Cmin (range over subjects),100 mg BID dosing with food,117 to 195 ng/mL
same,change of Cavg between days 1 and 10,100 mg BID dosing with food,doubled
same,increase of mean Cmax between days 1 and 10,100 mg BID dosing with food,less than 2 fold
same,trough concentrations with BID dosing relative to QD dosing,100 mg BID versus 200 mg QD,approximately double
same,AUC0-last,[1],6822 ng·h/mL and 7028 ng·h/mL and 6463 ng·h/mL and 6090 ng·h/mL and 5186 ng·h/mL
same,AUC0-tau,[1],3781 ng·h/mL and 2727 ng·h/mL and 4254 ng·h/mL and 3600 ng·h/mL and 4378 ng·h/mL
same,Cavg,[1],354.49 ng/mL and 299.97 ng/mL and 364.87 ng/mL and 232.90 ng/mL and 315.05 ng/mL and 227.25 ng/mL
same,Cmax,[1],939.00 ng/mL and 773.00 ng/mL and 845.00 ng/mL and 405.00 ng/mL and 852.00 ng/mL and 563.00 ng/mL
same,Fluct,[1],264.89% and 257.70% and 231.59% and 173.90% and 270.44% and 247.74%
same,Tlast,[1],24.00 h
same,Tmax,[1],1.00 h and 1.50 h
same,t½,[1],9.38 h and 6.21 h and 3.97 h and 3.19 h and 5.52 h and 4.66 h
same,AUC0-tau,"100 mg BID, Day 1, max",4378 ng·h/mL
same,Cavg,"100 mg BID, Day 1, max",364.87 ng/mL
same,Cmax,"100 mg BID, Day 1, max",939.00 ng/mL
same,Fluct,"100 mg BID, Day 1, max",270.44%
same,Tlast,"100 mg BID, Day 1, max",24.00 h
same,t½,"100 mg BID, Day 1, max",9.38 h
same,Cavg,"100 mg BID, Day 1, mean",299.088 ng/mL
same,Fluct,"100 mg BID, Day 1, mean",241.041%
same,Tlast,"100 mg BID, Day 1, mean",24.000 h
same,Cavg,"100 mg BID, Day 1, median",307.51 ng/mL
same,Fluct,"100 mg BID, Day 1, median",252.72%
same,Tlast,"100 mg BID, Day 1, median",24.00 h
same,AUC0-last,"100 mg BID, Day 1, min",5186 ng·h/mL
same,AUC0-tau,"100 mg BID, Day 1, min",2727 ng·h/mL
same,Cavg,"100 mg BID, Day 1, min",227.25 ng/mL
same,Cmax,"100 mg BID, Day 1, min",405.00 ng/mL
same,Fluct,"100 mg BID, Day 1, min",173.90%
same,Tlast,"100 mg BID, Day 1, min",24.00 h
same,Tmax,"100 mg BID, Day 1, min",1.00 h
same,t½,"100 mg BID, Day 1, min",3.19 h
same,% AUCexp,[2],2.24% and 1.52% and 8.16% and 4.45% and 7.33% and 4.38%
same,AUC0-last,[2],7715 ng·h/mL and 5510 ng·h/mL and 6477 ng·h/mL and 5615 ng·h/mL and 7597 ng·h/mL
same,AUC0-tau,[2],5982 ng·h/mL and 3731 ng·h/mL and 5545 ng·h/mL and 4118 ng·h/mL and 6283 ng·h/mL
same,AUCinf,[2],7834 ng·h/mL and 6000 ng·h/mL and 6779 ng·h/mL and 6059 ng·h/mL and 7945 ng·h/mL
same,Accum Index,[2],2.06 and 1.33 and 4.17 and 1.36 and 1.79 and 1.28
same,CLss/F,[2],14.28 L/h and 16.72 L/h and 26.80 L/h and 18.03 L/h and 24.29 L/h and 15.92 L/h
same,Cavg,[2],583.47 ng/mL and 498.51 ng/mL and 310.92 ng/mL and 462.09 ng/mL and 343.13 ng/mL and 523.54 ng/mL
same,Cmax,[2],1160.00 ng/mL and 865.00 ng/mL and 1050.00 ng/mL and 677.00 ng/mL and 1070.00 ng/mL
same,Cmin,[2],122.00 ng/mL (2×) and 164.00 ng/mL and 117.00 ng/mL and 155.00 ng/mL and 195.00 ng/mL
same,Fluct,[2],201.90% and 199.80% and 240.58% and 200.83% and 152.13% and 167.13%
same,Tlast,[2],48.00 h and 36.00 h (2×) and 72.00 h and 24.00 h (2×)
same,Tmax,[2],1.50 h and 1.00 h
same,t½,[2],12.52 h and 6.01 h and 30.30 h and 6.26 h and 10.19 h and 5.46 h
same,% AUCexp,"100 mg BID, Day 10, max",8.16%
same,Accum Index,"100 mg BID, Day 10, max",4.17
same,CLss/F,"100 mg BID, Day 10, max",26.80 L/h
same,Cavg,"100 mg BID, Day 10, max",583.47 ng/mL
same,Cmin,"100 mg BID, Day 10, max",195.00 ng/mL
same,Fluct,"100 mg BID, Day 10, max",240.58%
same,Tlast,"100 mg BID, Day 10, max",72.00 h
same,t½,"100 mg BID, Day 10, max",30.30 h
same,% AUCexp,"100 mg BID, Day 10, mean",4.679%
same,CLss/F,"100 mg BID, Day 10, mean",19.340 L/h
same,Cavg,"100 mg BID, Day 10, mean",453.609 ng/mL
same,Cmin,"100 mg BID, Day 10, mean",145.833 ng/mL
same,Fluct,"100 mg BID, Day 10, mean",193.726%
same,Tlast,"100 mg BID, Day 10, mean",40.000 h
same,% AUCexp,"100 mg BID, Day 10, median",4.42%
same,Accum Index,"100 mg BID, Day 10, median",1.58
same,CLss/F,"100 mg BID, Day 10, median",17.38 L/h
same,Cavg,"100 mg BID, Day 10, median",480.30 ng/mL
same,Cmin,"100 mg BID, Day 10, median",138.50 ng/mL
same,Fluct,"100 mg BID, Day 10, median",200.31%
same,Tlast,"100 mg BID, Day 10, median",36.00 h
same,% AUCexp,"100 mg BID, Day 10, min",1.52%
same,AUC0-last,"100 mg BID, Day 10, min",5510 ng·h/mL
same,AUC0-tau,"100 mg BID, Day 10, min",3731 ng·h/mL
same,AUCinf,"100 mg BID, Day 10, min",6000 ng·h/mL
same,Accum Index,"100 mg BID, Day 10, min",1.28
same,CLss/F,"100 mg BID, Day 10, min",14.28 L/h
same,Cavg,"100 mg BID, Day 10, min",310.92 ng/mL
same,Cmax,"100 mg BID, Day 10, min",677.00 ng/mL
same,Cmin,"100 mg BID, Day 10, min",117.00 ng/mL
same,Fluct,"100 mg BID, Day 10, min",152.13%
same,Tlast,"100 mg BID, Day 10, min",24 h
same,Tmax,"100 mg BID, Day 10, min",1.00 h
same,t½,"100 mg BID, Day 10, min",5.46 h
same,Cmin (range over subjects),200 mg QD dosing with food,52 to 94 ng/mL
same,change of Cmax and Cavg between Days 1 and 10,200 mg QD dosing with food,neither Cmax nor Cavg changed
same,AUC0-last,[3],6439 ng·h/mL and 1632 ng·h/mL and 6744 ng·h/mL and 8831 ng·h/mL and 12137 ng·h/mL and 12571 ng·h/mL
same,AUC0-tau,[3],8831 ng·h/mL and 12137 ng·h/mL and 12571 ng·h/mL and 6439 ng·h/mL and 1632 ng·h/mL and 6744 ng·h/mL
same,Cavg,[3],268.28 ng/mL and 67.99 ng/mL and 290.99 ng/mL and 367.97 ng/mL and 505.70 ng/mL and 523.80 ng/mL
same,Cmax,[3],980.00 ng/mL and 101.00 ng/mL and 1410.00 ng/mL and 1700.00 ng/mL and 1880.00 ng/mL and 2010.00 ng/mL
same,Fluct,[3],365.28% and 148.55% and 501.79% and 461.99% and 371.76% and 383.73%
same,Tlast,[3],24.00 h
same,t½,[3],7.07 h and 5.60 h and 4.61 h and 9.17 h and 17.12 h and 8.29 h
same,AUC0-last,"200 mg QD, Day 1, max",12571 ng·h/mL
same,AUC0-tau,"200 mg QD, Day 1, max",12571 ng·h/mL
same,Cavg,"200 mg QD, Day 1, max",523.80 ng/mL
same,Cmax,"200 mg QD, Day 1, max",2010.00 ng/mL
same,Fluct,"200 mg QD, Day 1, max",501.79%
same,Tlast,"200 mg QD, Day 1, max",24.00 h
same,t½,"200 mg QD, Day 1, max",17.12 h
same,Cavg,"200 mg QD, Day 1, mean",335.791 ng/mL
same,Fluct,"200 mg QD, Day 1, mean",372.185%
same,Tlast,"200 mg QD, Day 1, mean",24.000 h
same,Cavg,"200 mg QD, Day 1, median",324.48 ng/mL
same,Fluct,"200 mg QD, Day 1, median",377.75%
same,Tlast,"200 mg QD, Day 1, median",24.00 h
same,AUC0-last,"200 mg QD, Day 1, min",1632 ng·h/mL
same,AUC0-tau,"200 mg QD, Day 1, min",1632 ng·h/mL
same,Cavg,"200 mg QD, Day 1, min",67.99 ng/mL
same,Cmax,"200 mg QD, Day 1, min",101.00 ng/mL
same,Fluct,"200 mg QD, Day 1, min",148.55%
same,Tlast,"200 mg QD, Day 1, min",24.00 h
same,t½,"200 mg QD, Day 1, min",4.61 h

# — patent US20220133722A1, “PHARMACEUTICAL COMPOSITIONS” (QUE ONCOLOGY PTY LTD, priority 2019, published 2022)
